Measurements as given in patent US20250382305A1 (PTC THERAPEUTICS, INC., priority 2022, published 2025).

Legend:
[1] = test system: ATXN3 pre-mRNA; test: RT-qPCR Assay to Quantify Exon 4 Skipping in ATXN3 pre-mRNA in Cells; assay type: cell-based; conditions: percent exon 4 skipping in ATXN3 pre-mRNA, RT-qPCR of cell lysates; average IC50
In short: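 Cells plated at 10,000/well onto a 7-point, 3.16-fold DMSO dilution series (duplicates), incubated 24 h at 37 °C, then lysed. Exon 4 skipping measured by one-step RT-qPCR (48 °C RT, 40 cycles); IC50 interpolated from dose-response fit of percent skipping.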

[2] = test system: Total ATXN3 (tATXN3) protein; test: Endogenous Total ATXN3 (tATXN3) Protein Assay (MSD immunoassay of cell lysates); assay type: cell-based; conditions: average IC50, total ATXN3 protein in cell lysate after 48 h with compound (Table 1)
In short: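 Cells in DMEM/10% FBS were plated at 10,000 per well onto 7-point, 3.16-fold compound dilutions in duplicate for 48 h at 37° C, then lysed. Total ATXN3 in lysates was measured by MSD sandwich immunoassay: mouse anti-ATXN3 capture, rabbit anti-ATXN3 detection, SULFO-TAG anti-rabbit. Average IC50 was reported in star bins.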

IC50 [1] [µM] | IC50 [2] [µM] | SMILES
0.03 to 0.3 | 0.03 to 0.3 | N[C@@H]1CCCO[C@H]1c1c(I)c2nc(Cl)nc(NCc3ccco3)c2n1C(F)F [Compound 422, 6-((2R,3R)-3-aminotetrahydro-2H-pyran-2-yl)-2-chloro-5-(difluoromethyl)-N-(furan-2-ylmethyl)-7-iodo-5H-pyrrolo[3,2-d]pyrimidin-4-amine]
≤ 0.03 | 0.03 to 0.3 | N[C@@H]1CCCO[C@H]1c1c(Cl)c2nc(Cl)nc(NCc3cccs3)c2n1C(F)F [Compound 423, 6-((2R,3R)-3-aminotetrahydro-2H-pyran-2-yl)-2,7-dichloro-5-(difluoromethyl)-N-(thiophen-2-ylmethyl)-5H-pyrrolo[3,2-d]pyrimidin-4-amine]
≤ 0.03 | 0.03 to 0.3 | N[C@@H]1CC=CC[C@H]1c1c(I)c2nc(Cl)nc(NCc3ccccc3)c2n1C(F)F [Compound 424, 6-((1R,6R)-6-aminocyclohex-3-en-1-yl)-N-benzyl-2-chloro-5-(difluoromethyl)-7-iodo-5H-pyrrolo[3,2-d]pyrimidin-4-amine]
0.03 to 0.3 | 0.3 to 1 | N[C@@H]1CCCO[C@H]1c1c(Br)c2nc(Cl)cc(NCc3ccco3)c2n1C(F)F [Compound 426, 2-((2R,3R)-3-aminotetrahydro-2H-pyran-2-yl)-3-bromo-5-chloro-1-(difluoromethyl)-N-(furan-2-ylmethyl)-1H-pyrrolo[3,2-b]pyridin-7-amine]
≤ 0.03 | 0.03 to 0.3 | N[C@@H]1CC=CC[C@H]1c1c(I)c2nc(Cl)cc(NCc3cccs3)c2n1C(F)F [Compound 427, 2-((1R,6R)-6-aminocyclohex-3-en-1-yl)-5-chloro-1-(difluoromethyl)-3-iodo-N-(thiophen-2-ylmethyl)-1H-pyrrolo[3,2-b]pyridin-7-amine]
0.3 to 1 | 0.3 to 1 | CC#CCNc1cc(Cl)nc2c(Br)c([C@@H]3CCCC[C@H]3N)sc12 [Compound 428, 2-((1R,2R)-2-aminocyclohexyl)-3-bromo-N-(but-2-yn-1-yl)-5-chlorothieno[3,2-b]pyridin-7-amine]
≤ 0.03 | ≤ 0.03 | CC#CCNc1cc(Cl)nc2c(Br)c([C@@H]3CC=CC[C@H]3N)sc12 [Compound 429, 2-((1R,6R)-6-aminocyclohex-3-en-1-yl)-3-bromo-N-(but-2-yn-1-yl)-5-chlorothieno[3,2-b]pyridin-7-amine]
0.03 to 0.3 | 0.03 to 0.3 | C#Cc1c([C@@H]2CCCC[C@H]2N)sc2c(NCc3ccccc3F)cc(Cl)nc12 [Compound 430, 2-((1R,2R)-2-aminocyclohexyl)-5-chloro-3-ethynyl-N-(2-fluorobenzyl)thieno[3,2-b]pyridin-7-amine]
0.03 to 0.3 | 0.03 to 0.3 | N[C@@H]1CCCC[C@H]1c1sc2c(NCc3ccncc3)cc(Cl)nc2c1Br [Compound 432, 2-((1R,2R)-2-aminocyclohexyl)-3-bromo-5-chloro-N-(pyridin-4-ylmethyl)thieno[3,2-b]pyridin-7-amine]
0.03 to 0.3 | 0.03 to 0.3 | N[C@@H]1CC=CC[C@H]1c1sc2c(NCc3ccncc3)cc(Cl)nc2c1Cl [Compound 433, 2-((1R,6R)-6-aminocyclohex-3-en-1-yl)-3,5-dichloro-N-(pyridin-4-ylmethyl)thieno[3,2-b]pyridin-7-amine]
0.03 to 0.3 | 0.03 to 0.3 | N[C@@H]1CC=CC[C@H]1c1sc2c(NCc3ccccc3)nc(Cl)nc2c1Br [Compound 434, 6-((1R,6R)-6-aminocyclohex-3-en-1-yl)-N-benzyl-7-bromo-2-chlorothieno[3,2-d]pyrimidin-4-amine]
≤ 0.03 | 0.03 to 0.3 | Cc1c([C@@H]2CC=CC[C@H]2N)sc2c(NCc3ccncc3F)nc(Cl)nc12 [Compound 435, 6-((1R,6R)-6-aminocyclohex-3-en-1-yl)-2-chloro-N-((3-fluoropyridin-4-yl)methyl)-7-methylthieno[3,2-d]pyrimidin-4-amine]
0.3 to 1 | > 1 | Cc1c([C@@H]2CC=CC[C@H]2N)sc2c(NCc3ccncc3)nc(Cl)nc12 [Compound 436, 6-((1R,6R)-6-aminocyclohex-3-en-1-yl)-2-chloro-7-methyl-N-(pyridin-4-ylmethyl)thieno[3,2-d]pyrimidin-4-amine]
≤ 0.03 | ≤ 0.03 | N[C@@H]1CC=CC[C@H]1c1sc2c(NCc3ccco3)nc(Cl)nc2c1Cl [Compound 437, 6-((1R,6R)-6-aminocyclohex-3-en-1-yl)-2,7-dichloro-N-(furan-2-ylmethyl)thieno[3,2-d]pyrimidin-4-amine]
0.03 to 0.3 | 0.3 to 1 | CC#CCNc1cc(Cl)nc2c(Br)c([C@@H]3CC(C)=C(C)C[C@H]3N)sc12 [Compound 438, 2-((1R,6R)-6-amino-3,4-dimethylcyclohex-3-en-1-yl)-3-bromo-N-(but-2-yn-1-yl)-5-chlorothieno[3,2-b]pyridin-7-amine]
0.3 to 1 | 0.3 to 1 | N[C@@H]1CC=CC[C@H]1c1sc2c(NCc3ccncc3F)nc(Cl)nc2c1Cl [Compound 439, 6-((1R,6R)-6-aminocyclohex-3-en-1-yl)-2,7-dichloro-N-((3-fluoropyridin-4-yl)methyl)thieno[3,2-d]pyrimidin-4-amine]
0.3 to 1 | > 1 | N[C@@H]1CC=CC[C@H]1c1sc2c(NCc3ccncc3)nc(Cl)nc2c1Cl [Compound 440, 6-((1R,6R)-6-aminocyclohex-3-en-1-yl)-2,7-dichloro-N-(pyridin-4-ylmethyl)thieno[3,2-d]pyrimidin-4-amine]
0.03 to 0.3 | 0.03 to 0.3 | Cc1c([C@@H]2CC=CC[C@H]2N)sc2c(NCc3nccs3)nc(Cl)nc12 [Compound 441, 6-((1R,6R)-6-aminocyclohex-3-en-1-yl)-2-chloro-7-methyl-N-(thiazol-2-ylmethyl)thieno[3,2-d]pyrimidin-4-amine]
0.03 to 0.3 | 0.03 to 0.3 | C/C=C\CNc1cc(Cl)nc2c(Cl)c([C@H]3CCCC[C@@H]3N)sc12 [Compound 442, 2-((1S,2S)-2-aminocyclohexyl)-N-((Z)-but-2-en-1-yl)-3,5-dichlorothieno[3,2-b]pyridin-7-amine]
≤ 0.03 | ≤ 0.03 | N#Cc1cc(NCc2ccco2)c2sc([C@@H]3CC=CC[C@H]3N)c(Cl)c2n1 [Compound 443, 2-((1R,6R)-6-aminocyclohex-3-en-1-yl)-3-chloro-7-((furan-2-ylmethyl)amino)thieno[3,2-b]pyridine-5-carbonitrile]
0.3 to 1 | > 1 | CC1=C(C)C[C@@H](c2sc3c(NCc4ccco4)cc(Cl)nc3c2Cl)[C@H](N)C1 [Compound 444, 2-((1R,6R)-6-amino-3,4-dimethylcyclohex-3-en-1-yl)-3,5-dichloro-N-(furan-2-ylmethyl)thieno[3,2-b]pyridin-7-amine]
0.3 to 1 | 0.3 to 1 | CCOC(=O)C1=CC[C@@H](c2sc3c(NCc4cccs4)cc(Cl)nc3c2C)[C@@H](N)C1 [Compound 445, ethyl (4R,5S)-5-amino-4-(5-chloro-3-methyl-7-((thiophen-2-ylmethyl)amino)thieno[3,2-b]pyridin-2-yl)cyclohex-1-ene-1-carboxylate]
≤ 0.03 | ≤ 0.03 | Cc1c([C@H]2CC=C(C(=O)O)C[C@@H]2N)sc2c(NCc3cccs3)cc(Cl)nc12 [Compound 446, (4S,5S)-5-amino-4-(5-chloro-3-methyl-7-((thiophen-2-ylmethyl)amino)thieno[3,2-b]pyridin-2-yl)cyclohex-1-ene-1-carboxylic acid]
0.3 to 1 | 0.3 to 1 | N[C@H]1CC=CC[C@@H]1c1sc2c(NCc3cccs3)cc(Cl)nc2c1C#Cc1ccncc1Cl [Compound 447, 2-((1S,6S)-6-aminocyclohex-3-en-1-yl)-5-chloro-3-((3-chloropyridin-4-yl)ethynyl)-N-(thiophen-2-ylmethyl)thieno[3,2-b]pyridin-7-amine]
0.3 to 1 | 0.03 to 0.3 | [2H]C1=C([2H])C([2H])([2H])[C@@H](c2sc3c(NCc4ccco4)nc(Cl)nc3c2C)[C@H](N)C1([2H])[2H] [Compound 449, 6-((1R,6R)-6-aminocyclohex-3-en-1-yl-2,2,3,4,5,5-d6)-2-chloro-N-(furan-2-ylmethyl)-7-methylthieno[3,2-d]pyrimidin-4-amine]
0.3 to 1 | 0.3 to 1 | C[C@@H]1C=C[C@H](C)[C@H](N)[C@H]1c1sc2c(NCc3ccco3)cc(Cl)nc2c1Cl [Compound 450, 2-((1S,2R,5S,6S)-6-amino-2,5-dimethylcyclohex-3-en-1-yl)-3,5-dichloro-N-(furan-2-ylmethyl)thieno[3,2-b]pyridin-7-amine]
0.03 to 0.3 | 0.03 to 0.3 | CN(Cc1cccs1)c1cc(Cl)nc2c(C#CCCCO)c([C@@H]3CC=CC[C@H]3N)sc12 [Compound 451, 5-(2-((1R,6R)-6-aminocyclohex-3-en-1-yl)-5-chloro-7-(methyl(thiophen-2-ylmethyl)amino)thieno[3,2-b]pyridin-3-yl)pent-4-yn-1-ol]
0.03 to 0.3 | 0.03 to 0.3 | CN(Cc1ccco1)c1cc(Cl)nc2c(C#CCCCO)c([C@@H]3CC=CC[C@H]3N)sc12 [Compound 452, 5-(2-((1R,6R)-6-aminocyclohex-3-en-1-yl)-5-chloro-7-((furan-2-ylmethyl)(methyl)amino)thieno[3,2-b]pyridin-3-yl)pent-4-yn-1-ol]
0.3 to 1 | 0.3 to 1 | CN(Cc1ccccc1)c1cc(Cl)nc2c(C#CCCCO)c([C@H]3CC=CC[C@@H]3N)sc12 [Compound 453, 5-(2-((1S,6S)-6-aminocyclohex-3-en-1-yl)-7-(benzyl(methyl)amino)-5-chlorothieno[3,2-b]pyridin-3-yl)pent-4-yn-1-ol]
